This passage reports TGI and GI50 results from PubChem BioAssay (NCI).

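Cells were grown in 96-well plates and exposed to each compound for 48 hours at five concentrations; endpoints were interpolated linearly between bracketing concentrations, or set to the highest concentration if not reached. GI50 = concentration required for 50% inhibition of growth. TGI marks complete inhibition of growth.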 Where only a bound is given, the exact number is not on record here.

Assay in all cases: DTP human tumour cell line panel, 48 h
For assay [1], the system named is COLO 205 colon.
Assay [2] has as its system NCI-H460 lung.
Assay [3] relates to NCI-H522 lung.
For assay [4], the system named is OVCAR-4 ovarian.
For assay [5], the system named is OVCAR-8 ovarian.
For assay [6], the system named is SF-539 CNS.
The test system of assay [7] is SK-MEL-5 melanoma.
For assay [8], the system named is SNB-75 CNS.
In assay [9] the test system is SR leukemia.
Assay [10] deals with SW-620 colon.

As usually defined, the TGI is the concentration at which net growth stops. Low values mean greater sensitivity of the cells, high ones lower sensitivity of the cells. `CN(C)c1cc2ccccc2oc1=O`: the total growth inhibition concentration (TGI) in assay [1], in [2], in assay [3], in assay [4], in assay [5] and in assay [6] was more than 100 µM in each case. In addition, the concentration for total growth inhibition (TGI) in assay [7], in [8], in assay [9] and in assay [10] was more than 100 µM in each case.

What is called GI50 is the concentration at which growth is held to half of that of the control. As for `O=C(c1ccc2ccccc2c1)c1c(C(F)(F)F)n([O-])c2ccc(C(F)(F)F)cc2[n+]1=O`, the GI50 in [1] was 0.724 µM; in [2] it was 1.8 µM; in [3] it was 0.505 µM; in [4] it was 0.249 µM; in assay [5] it was 0.727 µM; in [6] it was 1.56 µM. Besides, the GI50 was 0.927 µM in [7], 0.64 µM in [8], 0.174 µM in assay [9] and 0.514 µM in [10]. For the same compound, the TGI came out at 1.83 µM in [1]; 3.69 µM in assay [2]; 1.09 µM in [3]; 0.607 µM in assay [4]; 2.45 µM in [5]; 2.97 µM in [6]. Besides, the TGI in [7] was determined as 2.37 µM; in assay [8] it was 1.48 µM; in assay [9], 0.478 µM; in [10], 1.11 µM.

In the case of `O=C(/C=C/c1ccccc1)Oc1cccc2cccnc12`, the total growth inhibition concentration (TGI) is 21.1 µM in assay [1]; 35.4 µM in assay [2]; 5.31 µM in assay [3]; 27.6 µM in [4]; more than 62.2 µM in [5]; 30.5 µM in assay [6]. For the same compound, the TGI in [7] is 24 µM; in [8], more than 71 µM; in assay [9] it was more than 100 µM; in assay [10], 21.9 µM.

In the case of `Nc1ncnc2c1ncn2C1OC(CSCC(F)(F)F)C(O)C1O` (stereo not given), the concentration for total growth inhibition (TGI) in [1], in assay [2], in assay [3], in [4], in assay [5] and in assay [6] was more than 100 µM throughout. The concentration for total growth inhibition (TGI) in assay [7], in assay [8], in assay [9] and in [10] was more than 100 µM each time.

Regarding `C/C(CC(O)(C(F)(F)F)C(F)(F)F)=N\NC(N)=O`, the TGI in assay [1], in assay [2], in [3], in assay [4], in assay [5] and in [6] was more than 10 µM each time. Further, the total growth inhibition concentration (TGI) in assay [7], in [8], in [9] and in assay [10] was more than 10 µM in each case.

`Cn1ccnc1CCc1c(Cl)cccc1Cl`: the TGI in [1], in [2], in assay [3], in [4], in [5] and in assay [6] was more than 100 µM in each case. The concentration for total growth inhibition (TGI) in [7], in assay [8], in assay [9] and in assay [10] was more than 100 µM throughout.
